This is an account of results in paper PMC10972756, “A helical fulcrum in eIF2B coordinates allosteric regulation of stress signaling” (Nature Chemical Biology, 2023).

Series [1] concerns the target T1, eIF2B(αβγδε)2 decamer (Homo sapiens, UniProt P49770+Q9UI10, Q9UI10:F443A).
T1 construct: gene EIF2B2; recombinant human eIF2Bα2 (pJT075) mixed with eIF2Bβγδε (pJT073 + pJT074 coexpression); heterodecamer; 2,369 unique amino acids; with Translation initiation factor eIF2B subunit alpha; Translation initiation factor eIF2B subunit gamma; Translation initiation factor eIF2B subunit epsilon
The experiment in a line: fluorescence polarization, eIF2B titration. The settings on record: labelled compound; 2.5 nM FAM-ISRIB; 20 mM HEPES-KOH pH 7.5, 100 mM KCl, 5 mM MgCl2, 1 mM TCEP; 25 °C; ISRIB pocket; read-out: half-maximal effective concentration. Type of series: binding.

Series [2] concerns the target T2, eIF2B(αβγδε)2 decamer (Homo sapiens, UniProt P49770+Q9UI10, Q9UI10:L516A).
T2 construct: gene EIF2B2; recombinant human eIF2Bα2 (pJT075) mixed with eIF2Bβγδε (pJT073 + pJT074 coexpression); heterodecamer; 2,369 unique amino acids; with Translation initiation factor eIF2B subunit alpha; Translation initiation factor eIF2B subunit gamma; Translation initiation factor eIF2B subunit epsilon
As to the kind of experiment: fluorescence polarization, eIF2B titration. The format is binding. The note with it: labelled compound; 2.5 nM FAM-ISRIB; 20 mM HEPES-KOH pH 7.5, 100 mM KCl, 5 mM MgCl2, 1 mM TCEP; 25 °C; ISRIB pocket; read-out: half-maximal effective concentration.

Series [3] has as its target T3, eIF2B(αβγδε)2 decamer (Homo sapiens, UniProt P49770+Q9UI10, Q9UI10:E445A).
T3 construct: gene EIF2B2; recombinant human eIF2Bα2 (pJT075) mixed with eIF2Bβγδε (pJT073 + pJT074 coexpression); heterodecamer; 2,369 unique amino acids; with Translation initiation factor eIF2B subunit alpha; Translation initiation factor eIF2B subunit gamma; Translation initiation factor eIF2B subunit epsilon
As to the kind of experiment: fluorescence polarization, eIF2B titration. The format is binding. The note with it: labelled compound; 2.5 nM FAM-ISRIB; 20 mM HEPES-KOH pH 7.5, 100 mM KCl, 5 mM MgCl2, 1 mM TCEP; 25 °C; ISRIB pocket; read-out: half-maximal effective concentration.

Series [4] has as its target T4, eIF2B(αβγδε)2 decamer (Homo sapiens, UniProt P49770+Q9UI10).
T4 construct: gene EIF2B2; recombinant human eIF2Bα2 (pJT075) mixed with eIF2Bβγδε (pJT073 + pJT074 coexpression); heterodecamer; 2,369 unique amino acids; with Translation initiation factor eIF2B subunit alpha; Translation initiation factor eIF2B subunit gamma; Translation initiation factor eIF2B subunit epsilon
As to the kind of experiment: fluorescence polarization, eIF2B titration. Type of series: binding. The settings on record: labelled compound; 2.5 nM FAM-ISRIB; 20 mM HEPES-KOH pH 7.5, 100 mM KCl, 5 mM MgCl2, 1 mM TCEP; 25 °C; ISRIB pocket; read-out: half-maximal effective concentration. (In general: Polarisation of emitted light reports the rotation of a fluorescent probe.)

For series [5], the target named is T4, eIF2B(αβγδε)2 decamer. As to the kind of experiment: hydrogen-deuterium exchange mass spectrometry. The settings on record: 20 mM HEPES, 200 mM KCl, 5 mM MgCl2, 1 mM TCEP, pH 7.9; ISRIB pocket, groove between eIF2Bβ and eIF2Bδ'; allosteric. Type of series: binding.
The next series addresses eIF2Bβγδ^E445Aε tetramer (human, UniProt P49770 2-351; Q9NR50 1-452; Q9UI10 1-523; Q13144 1-721, δE445A). The experiment in a line: AUC; sedimentation velocity, 40,000 r.p.m., 20 °C, 20 mM HEPES-KOH pH 7.5, 150 mM KCl, 1 mM TCEP, 5 mM MgCl2; tetramer mixed with eIF2Bα2 (2:1 or 1:1 tetramer:dimer); continuous c(S) distribution. The settings on record: both partners purified.

Another series addresses eIF2Bβγδ^F443Aε tetramer (human, UniProt P49770 2-351; Q9NR50 1-452; Q9UI10 1-523; Q13144 1-721, δF443A). The series is described as above. The note with it: both partners purified.
Series [6] deals with the molecule itself. The experiment in a line: cryo-EM structure; 20 µM eIF2Bδ^L516A βγδε incubated with 11 µM eIF2Bα2 in 20 mM HEPES-KOH, 200 mM KCl, 5 mM MgCl2, 1 mM TCEP; diluted to 750 nM for grids.

Turning to FAM-ISRIB, the EC50 at eIF2B(αβγδε)2 decamer [1] came to 50 ± 8 nM; at eIF2B(αβγδε)2 decamer [2] it was 169 ± 34 nM; at eIF2B(αβγδε)2 decamer [3], 30 ± 2 nM; at eIF2B(αβγδε)2 decamer [4], 38 ± 2 nM.
With `O=C(COc1ccc(Cl)c(F)c1)NC12CC(NC(=O)c3cnc(C(F)F)cn3)(C1)C2` [2BAct], the “hydrogen-deuterium exchange mass spectrometry” value on eIF2B(αβγδε)2 decamer [5] was “We also observed protection in peptides at the 2BAct binding site”.

B1: eIF2Bα2 dimer, wild type (complex, human)
chain: DDKELIEYFKSQMKEDPDMASAVAAIRTLLEFLKRDKGETIQGLRANLTSAIETLCGVDSSVAVSSGGELFLRFISLASLEYSDYSKCKKIMIERGELFLRRISLSRNKIADLCHTFIKDGATILTHAYSRVVLRVLEAAVAAKKRFSVYVTESQPDLSGKKMAKALCHLNVPVTVVLDAAVGYIMEKADLVIVGAEGVVENGGIINKIGTNQMAVCAKAQNKPFYVVAESFKFVRLFPLNQQDVPDKFKYKADTLKVAQTGQDLKEEHPWVDYTAPSLITLLFTDLGVLTPSAVSDELIKLYL
notes: also called eIFBα2
For B1, the binding result (with eIF2Bβγδ^E445Aε tetramer; with eIF2Bβγδ^F443Aε tetramer; in series [6]) was “binds” throughout.
